Patent US20260262643A1, “HERBICIDAL BENZOXAZINES” (FMC CORPORATION, priority 2022, published 2026)

Legend:
blackgrass [1] = assay: Test C postemergence; format: in vivo, Alopecurus myosuroides; details: 10 days
Method in brief: (§1)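 Greenhouse herbicide screen, 10-day duration. Test chemicals in solvent/surfactant blend were sprayed onto soil at sowing (pre) or onto 2–10 cm seedlings at one to two leaves (post); injury scored visually against controls, 0 no effect to 100 complete control.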

ryegrass, Italian [2] = assay: Test C preemergence; format: in vivo, Lolium multiflorum; details: for Ryegrass, Italian plant response rating: preemergence; for Plant response rating, Ryegrass, Italian: Preemergence
Method in brief: as §1

barnyardgrass [3] = assay: Test C postemergence; format: in vivo, Echinochloa crusgalli; details: 10 days
Method in brief: as §1

oat, wild [4] = assay: Test C postemergence; format: in vivo, Avena fatua; details: 10 days
Method in brief: as §1

ragweed [5] = assay: Test C preemergence; format: in vivo, Ambrosia artemisiifolia; details: for Ragweed plant response rating: preemergence; for Plant response rating, Ragweed: Preemergence
Method in brief: as §1

pigweed, palmer [6] = assay: Test C postemergence; format: in vivo, Amaranthus palmeri; details: 10 days
Method in brief: as §1

soybean [7] = assay: Test C preemergence; format: in vivo, Glycine max; details: for Soybean plant response rating: preemergence; for Plant response rating, Soybean: Preemergence
Method in brief: as §1

barnyardgrass [8] = assay: Test C preemergence; format: in vivo, Echinochloa crusgalli; details: for Barnyardgrass plant response rating: preemergence; for Plant response rating, Barnyardgrass: Preemergence
Method in brief: as §1

ragweed [9] = assay: Test C postemergence; format: in vivo, Ambrosia artemisiifolia; details: 10 days
Method in brief: as §1

corn [10] = assay: Test C postemergence; format: in vivo, Zea mays; details: 10 days
Method in brief: as §1

barnyardgrass [11] = assay: Test D flooded paddy test; format: in vivo, Echinochloa crus-galli; details: 250 g ai/ha, applied to paddy water, visual rating after 13 to 14 days, scale 0 to 100 (0 no effect, 100 complete control)
Method in brief: (§2)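 Seedlings reached the 2-leaf stage, then pots were flooded to 3 cm over the soil surface. Compound was applied into the water, depth was maintained, and plants stayed in the greenhouse 13 to 14 days before visual scoring (0–100) relative to controls.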

green foxtail [12] = assay: Test C postemergence; format: in vivo, Setaria viridis; details: 10 days
Method in brief: as §1

horseweed = assay: Test C postemergence; format: in vivo, Erigeron canadensis; details: 10 days
Method in brief: as §1

rice = assay: Test D flooded paddy test; format: in vivo, Oryza sativa; details: 250 g ai/ha, applied to paddy water, visual rating after 13 to 14 days, scale 0 to 100 (0 no effect, 100 complete control)
Method in brief: as §2

sedge, umbrella = assay: Test D flooded paddy test; format: in vivo, Cyperus difformis; details: 250 g ai/ha, applied to paddy water, visual rating after 13 to 14 days, scale 0 to 100 (0 no effect, 100 complete control)
Method in brief: as §2

galium = assay: Test C postemergence; format: in vivo, Galium aparine; details: 10 days
Method in brief: as §1

oat, wild [13] = assay: Test C preemergence; format: in vivo, Avena fatua; details: for Oat, Wild plant response rating: preemergence; for Plant response rating, Oat, Wild: Preemergence
Method in brief: as §1

kochia [14] = assay: Test C postemergence; format: in vivo, Bassia scoparia; details: 10 days
Method in brief: as §1

kochia [15] = assay: Test C preemergence; format: in vivo, Bassia scoparia; details: for Kochia plant response rating: preemergence; for Plant response rating, Kochia: Preemergence
Method in brief: as §1

wheat [16] = assay: Test C preemergence; format: in vivo, Triticum aestivum; details: for Wheat plant response rating: preemergence; for Plant response rating, Wheat: Preemergence
Method in brief: as §1

corn [17] = assay: Test C preemergence; format: in vivo, Zea mays; details: for Corn plant response rating: preemergence; for Plant response rating, Corn: Preemergence
Method in brief: as §1

wheat [18] = assay: Test C postemergence; format: in vivo, Triticum aestivum; details: 10 days
Method in brief: as §1

pigweed, palmer [19] = assay: Test C preemergence; format: in vivo, Amaranthus palmeri; details: for Pigweed, Palmer plant response rating: preemergence; for Plant response rating, Pigweed, Palmer: Preemergence
Method in brief: as §1

blackgrass [20] = assay: Test C preemergence; format: in vivo, Alopecurus myosuroides; details: for Blackgrass plant response rating: preemergence; for Plant response rating, Blackgrass: Preemergence
Method in brief: as §1

soybean [21] = assay: Test C postemergence; format: in vivo, Glycine max; details: 10 days
Method in brief: as §1

ducksalad = assay: Test D flooded paddy test; format: in vivo, Heteranthera limosa; details: 250 g ai/ha, applied to paddy water, visual rating after 13 to 14 days, scale 0 to 100 (0 no effect, 100 complete control)
Method in brief: as §2

ryegrass, Italian [22] = assay: Test C postemergence; format: in vivo, Lolium multiflorum; details: 10 days
Method in brief: as §1

green foxtail [23] = assay: Test C preemergence; format: in vivo, Setaria viridis; details: for Foxtail, Green plant response rating: preemergence; for Plant response rating, Foxtail, Green: Preemergence
Method in brief: as §1

[24] = 500 g ai/ha, postemergence, 0 to 100 scale (0 no effect, 100 complete control)
[25] = Postemergence, 125 g ai/ha, 0 to 100 scale (0 no effect, 100 complete control)
[26] = 500 g ai/ha, 0 to 100 scale (0 no effect, 100 complete control)
[27] = 125 g ai/ha, 0 to 100 scale, 0 no effect, 100 complete control
[28] = 125 g ai/ha, postemergence, 0 to 100 scale, 0 no effect, 100 complete control
[29] = Postemergence, 500 g ai/ha, visual 0 to 100 scale (0 no effect, 100 complete control)
[30] = 500 g ai/ha, visual rating after 10 days, 0 to 100 scale (0 no effect, 100 complete control)
[31] = Test C, 125 g ai/ha, 0 to 100 scale (0 no effect, 100 complete control)

COC(C)(C)c1ncn(-c2ccc(C)c(C(=O)N3C[C@H](C)Oc4c(Cl)cccc43)c2)n1 [Compound 343]
45: Plant response rating, Ducksalad (Flood) (ducksalad)
50: Plant response rating, Pigweed, Palmer (pigweed, palmer [6]; [25]) | Plant response rating, Foxtail, Green (green foxtail [12]; [25]) | Plant response rating, Blackgrass (blackgrass [20]; [27])
20: Plant response rating, Barnyardgrass (barnyardgrass [3]; [25]) | Plant response rating, Wheat (wheat [18]; [25])
35: Plant response rating, Barnyardgrass (Flood) (barnyardgrass [11])
90: Plant response rating, Blackgrass (blackgrass [1]; [24]) | Plant response rating, Oat, Wild (oat, wild [4]; [24]) | Plant response rating, Corn (corn [10]; [25]) | Plant response rating, Foxtail, Green (green foxtail [12]; [24]) | Oat, Wild plant response rating (oat, wild [13]; [26]) | Plant response rating, Oat, Wild (oat, wild [13]; [27]) | Plant response rating, Kochia (kochia [14]; [24]) | Plant response rating, Kochia (kochia [15]; [27]) | Wheat plant response rating (wheat [16]; [26]) | Blackgrass plant response rating (blackgrass [20]; [26]) | Plant response rating, Ryegrass, Italian (ryegrass, Italian [22]; [24])
100: Ryegrass, Italian plant response rating (ryegrass, Italian [2]; [26]) | Plant response rating, Ryegrass, Italian (ryegrass, Italian [2]; [27]) | Plant response rating, Pigweed, Palmer (pigweed, palmer [6]; [24]) | Soybean plant response rating (soybean [7]; [26]) | Barnyardgrass plant response rating (barnyardgrass [8]; [26]) | Plant response rating, Barnyardgrass (barnyardgrass [8]; [27]) | Plant response rating, Corn (corn [10]; [24]) | Plant response rating, Galium (galium; [24]) | Plant response rating, Galium (galium; [25]) | Kochia plant response rating (kochia [15]; [26]) | Pigweed, Palmer plant response rating (pigweed, palmer [19]; [26]) | Plant response rating, Pigweed, Palmer (pigweed, palmer [19]; [27]) | Plant response rating, Soybean (soybean [21]; [24]) | Plant response rating, Soybean (soybean [21]; [25]) | Foxtail, Green plant response rating (green foxtail [23]; [26]) | Plant response rating, Foxtail, Green (green foxtail [23]; [27])
65: Plant response rating, Sedge, Umbrella (Flood) (sedge, umbrella)
40: Plant response rating, Blackgrass (blackgrass [1]; [25]) | Plant response rating, Corn (corn [17]; [27])
70: Plant response rating, Barnyardgrass (barnyardgrass [3]; [24]) | Ragweed plant response rating (ragweed [5]; [26]) | Plant response rating, Ryegrass, Italian (ryegrass, Italian [22]; [25])
30: Plant response rating, Ragweed (ragweed [5]; [27]) | Plant response rating, Soybean (soybean [7]; [27]) | Plant response rating, Horseweed (horseweed; [25]) | Plant response rating, Wheat (wheat [16]; [27])
60: Plant response rating, Oat, Wild (oat, wild [4]; [25]) | Plant response rating, Ragweed (ragweed [9]; [25]) | Corn plant response rating (corn [17]; [26]) | Plant response rating, Wheat (wheat [18]; [24])
15: Plant response rating, Rice (Flood) (rice)
80: Plant response rating, Ragweed (ragweed [9]; [24]) | Plant response rating, Horseweed (horseweed; [24]) | Plant response rating, Kochia (kochia [14]; [25])

C[C@H]1CN(C(=O)c2cc(-n3cncn3)cc3c2OCCO3)c2cccc(Cl)c2O1 [Compound 153]
0: Kochia plant response rating (kochia [15]; [31])
30: Plant response rating, Corn (corn [17]; [30])
60: Plant response rating, Horseweed (horseweed; [28]) | Plant response rating, Kochia (kochia [14]; [28]) | Plant response rating, Kochia (kochia [15]; [30]) | Plant response rating, Blackgrass (blackgrass [20]; [30])
15: Plant response rating, Rice (Flood) (rice)
70: Plant response rating, Oat, Wild (oat, wild [4]; [29]) | Plant response rating, Pigweed, Palmer (pigweed, palmer [6]; [28]) | Plant response rating, Ducksalad (Flood) (ducksalad)
80: Ragweed plant response rating (ragweed [5]; [31]) | Barnyardgrass plant response rating (barnyardgrass [8]; 125 g ai/ha, 0 to 100 scale (0 no effect, 100 complete control)) | Plant response rating, Ragweed (ragweed [9]; [28]) | Plant response rating, Corn (corn [10]; [28]) | Plant response rating, Oat, Wild (oat, wild [13]; [30])
50: Plant response rating, Oat, Wild (oat, wild [4]; [28]) | Plant response rating, Horseweed (horseweed; [29])
100: Plant response rating, Ragweed (ragweed [5]; [30]) | Plant response rating, Pigweed, Palmer (pigweed, palmer [6]; [29]) | Plant response rating, Soybean (soybean [7]; [30]) | Soybean plant response rating (soybean [7]; [31]) | Plant response rating, Barnyardgrass (barnyardgrass [8]; [30]) | Plant response rating, Ragweed (ragweed [9]; [29]) | Plant response rating, Galium (galium; [29]) | Plant response rating, Pigweed, Palmer (pigweed, palmer [19]; [30]) | Pigweed, Palmer plant response rating (pigweed, palmer [19]; [31]) | Plant response rating, Soybean (soybean [21]; [28]) | Plant response rating, Soybean (soybean [21]; [29]) | Plant response rating, Ryegrass, Italian (ryegrass, Italian [22]; [29]) | Plant response rating, Foxtail, Green (green foxtail [23]; [30]) | Foxtail, Green plant response rating (green foxtail [23]; [31])
20: Wheat plant response rating (wheat [16]; [31]) | Blackgrass plant response rating (blackgrass [20]; [31])
10: Corn plant response rating (corn [17]; [31])
35: Plant response rating, Barnyardgrass (Flood) (barnyardgrass [11])
98: Plant response rating, Sedge, Umbrella (Flood) (sedge, umbrella)
90: Plant response rating, Blackgrass (blackgrass [1]; [28]) | Plant response rating, Blackgrass (blackgrass [1]; [29]) | Plant response rating, Ryegrass, Italian (ryegrass, Italian [2]; [30]) | Ryegrass, Italian plant response rating (ryegrass, Italian [2]; [31]) | Plant response rating, Barnyardgrass (barnyardgrass [3]; [28]) | Plant response rating, Barnyardgrass (barnyardgrass [3]; [29]) | Plant response rating, Corn (corn [10]; [29]) | Plant response rating, Foxtail, Green (green foxtail [12]; [28]) | Plant response rating, Foxtail, Green (green foxtail [12]; [29]) | Plant response rating, Galium (galium; [28]) | Plant response rating, Kochia (kochia [14]; [29]) | Plant response rating, Wheat (wheat [16]; [30]) | Plant response rating, Wheat (wheat [18]; [28]) | Plant response rating, Wheat (wheat [18]; [29]) | Plant response rating, Ryegrass, Italian (ryegrass, Italian [22]; [28])
40: Oat, Wild plant response rating (oat, wild [13]; [31])
